Reference: publication PMC7177633, “Effective Cellular Transport of Ortho-Halogenated Sulfonamide Derivatives of Metformin Is Related to Improved Antiproliferative Activity and Apoptosis Induction in MCF-7 Cells” (International Journal of Molecular Sciences, 2020)

How the values were obtained:
Assay type in all cases: cell-based, human
[1] = system: OCTs; assay: Inhibition of [14C]choline uptake in MDA-MB-231 cells (competitive inhibition assay); details: mean ± SD (n = 3)
Experimental: The following day, after removal of the culture medium, the cells were carefully washed with prewarmed HBSS (Hanks’ balanced salt solution) containing 125 mM NaCl, 4.8 mM KCl, 1.2 mM MgSO4, 1.2 mM KH2PO4, 1.3 mM CaCl2, 5.6 mM glucose and 25 mM HEPES (pH 7.4). […] Then, the cells were washed three times with ice-cold HBSS (500 μL) and were lysed with 250 μL of 0.1-M NaOH in the ice bath, and the lysate was mixed with 1.0 mL of an emulsifier safe cocktail (PerkinElmer, Waltham, MA, USA). The radioactivity was measured by liquid scintillation counting (MicroBeta^2 counter, PerkinElmer, Waltham, MA, USA). The studies were carried out with the use of at least three replicates from the same cell passage.

[2] = system: MCF-7 cells; assay: Annexin V-FITC/PI apoptosis assay, MCF-7; details: for Early Apoptotic [E+−] / Late Apoptotic [E++] / Living Cells [E−−] / Necrotic Cells [E−+] / Single Cells in Gate B: MCF-7, 24 h
Experimental: MCF-7 and MDA-MB-231 cells were seeded at a density of 5 × 10^4 per well on 24-well plates and incubated for 24 h (37 °C, 5% CO2) to obtain 70 % confluency. Then, the medium (control) or medium with the tested compounds in a volume of 250 μL was added and incubated for another 24 h. The cells were harvested using accutase (Sigma Aldrich, St. Louis, MO, USA) as a detaching reagent, collected to Eppendorf tubes and centrifuged (1100 rpm, 5 min). Afterwards, the cells were resuspended in 1 mL of a cold cell-staining buffer (Biolegend, London UK) and washed twice with a cell-staining buffer. The final step included suspension of the cell pellets in 100 μL of a binding buffer, staining with propidine iodide (PI; 10 μL) and FITC-annexin solutions (AV; 5 μL) (FITC Annexin V Apoptosis Detection Kit with PI (Biolegend, UK)). The samples were incubated for 20 min at room temperature in the dark, followed by an analysis conducted on a cytometer (CytoFlex, blue laser, 480 nm, Beckman-Coulter, Indianapolis, IN, USA). The results were analyzed using Kaluza 2.1 (Beckman-Coulter) software.
Annexin V (−) and PI (−) cells were considered living cells, annexin V (+) and PI (−) as early-apoptotic cells, annexin V (+) and PI (+) as late-apoptotic cells and annexin V (−) and PI (+) as necrotic cells.
The experiments were conducted in triplicates (n = 3). The coefficients of variation for the assay were determined (CV = 0.97–13.62%, depending on the calculated cell population).

[3] = system: MCF-7 cells; assay: Intracellular GSH and GSSG, MCF-7
Experimental: The quantitative determination of glutathione and glutathione disulfide was performed using the enzymatic recycling method according to the protocol of Rahman. The cells were seeded at a density of 2 × 10^5 per well in a 6-well plate and cultured for 48 h. Then, the cells were treated with tested compounds 1, 4 and 7 at their respective ¼ and ½ IC50 values for MCF-7 and MDA-MB-231 cells. Additionally, controls with pure medium, AAPH (2,2′-Azobis(2-methylpropionamidine) dihydro-chloride, Sigma Aldrich, St. Louis, MO, USA) and ascorbic acid (Polish Chemical Reagents, Poland) were performed. The cells were incubated with compounds for another 24 h, then washed twice with 2 mL of cold, Ca^2+-/Mg^2+-free PBS (Biomed Lublin, Lublin, Poland). The cells were harvested using 1-mL accutase (Sigma Aldrich, St. Louis, MO, USA), and the wells were washed with 1 mL of cold growth medium. The cells were transferred to prechilled 2.0-mL Eppendorf tubes and centrifuged at 1000× g for 5 min at 4 °C. The supernatant was discarded, the pellets were resuspended in 1 mL of cold PBS, the number of cells was determined in each sample and the cellular suspension was centrifuged again. PBS was discarded, and the pellets were stored covered with 30-µL PBS at –70 °C. The following day, the cells were suspended in 0.5 mL of ice-cold extraction buffer (0.1% Triton-X (Polish Chemical Reagents, Gliwice, Poland) and 0.6% sulfosalicylic acid (Sigma Aldrich) in a potassium phosphate buffer with EDTA (Sigma Aldrich)) and sonicated in icy water for 3 min with vortexing every 30 s. The cells were frozen once again at −80 °C, defrosted on ice and frozen once again. Following the second freeze–thaw cycle, the cells were centrifuged at 1500× g for 5 min at 4 °C, and then, immediately, the supernatant was transferred to prechilled Eppendorf tubes. The samples were divided into two parts: one was used to measure GSH, and the other one was derivatized by an addition of 4 µL of 2-vinylpyridine (diluted 1:10 with phosphate buffer) (Sigma Aldrich, St. Louis, MO, USA) to determine the GSSG content.
GSH measurements included an addition of 20 µL of the tested sample, blank or GSH standard, 120 µL of the mixture of an equal volume of DTNB solution (2 mg dissolved in 3 mL of phosphate buffer, Sigma Aldrich) and glutathione reductase (10 U in 3 mL of phosphate buffer, Sigma Aldrich, St. Louis, MO, USA) and 30 s of incubation to allow the conversion of GSSG to GSH. The final step included the addition of 60 µL of β-NADPH (2 mg dissolved in 3 mL of phosphate buffer, Sigma Aldrich). The absorbance was read immediately at 415 nm in a microplate reader (Bio-Rad), and the measurements were taken every 30 s for 2 min (6 readings in total). The amount of GSH was calculated on the basis of the calibration curve prepared using GSH (Sigma Aldrich, St. Louis, MO, USA) at concentrations ranging from 0.040 to 2.6 nmol/mL.
The quantification of GSSG in the test samples was performed according to the same procedure as GSH. The samples treated with 2-VP were incubated for one hour at room temperature, and then, 20 µL of the tested sample was analyzed using the same reagents which were applied in the GSH measurements. The amount of GSSG was calculated on the basis of the calibration curve, prepared using GSSG (Sigma Aldrich) at concentrations of 0.040–2.6 nmol/mL. The results are presented as mean ± SD, n = 6–8 and expressed as nmol per […].

[4] = IC50 (Comp. 1 13, Comp. 4 430, Comp. 7 55 μmol/L)
[5] = ½ × IC50 (Comp. 1 6.5, Comp. 4 215, Comp. 7 27.5 μmol/L)
[6] = MCF-7, 430 uM, representative cytogram Figure 7A
[7] = ½ × IC50 (Comp. 1 6.5, Comp. 4 215, Comp. 7 27.5 μmol/L), listed as Comp. 4

## CN(C)C(=N)N=C(N)NS(=O)(=O)c1ccccc1Cl [Compound 1]
[1]
  IC50: 2135 ± 14 µM
[2]; [4]
  Early Apoptotic [E+−]: 35.79 ± 3.78 %
  Late Apoptotic [E++]: 33.84 ± 3.17 %
  Living Cells [E−−]: 29.96 ± 6.41 %
  Necrotic Cells [E−+]: 0.41 ± 0.02 %
  Single Cells in Gate B: 82.66 ± 0.68 %
[2]; [5]
  Early Apoptotic [E+−]: 27.59 ± 1.03 %
  Late Apoptotic [E++]: 38.93 ± 3.46 %
  Living Cells [E−−]: 32.82 ± 4.50 %
  Necrotic Cells [E−+]: 0.67 ± 0.08%
  Single Cells in Gate B: 77.51 ± 0.92 %
[3]; MCF-7, 1/2 × IC50, 24 h
  GSH: 167.5 ± 5.1 nmol/1 mln Cells
  GSH:GSSG Ratio: 22.6
  GSSG: 7.4 ± 1.8 nmol/1 mln Cells
[3]; MCF-7, 1/4 × IC50, 24 h
  GSH: 183.1 ± 8.9 nmol/1 mln Cells
  GSH:GSSG Ratio: 20.1
  GSSG: 9.1 ± 3.9 nmol/1 mln Cells

## CN(C)C(=N)N=C(N)NS(=O)(=O)c1ccccc1Br [Compound 4]
[1]
  IC50: 920 ± 13 µM
[2]; [6]
  Early apoptosis (representative cytogram): 24.99%
  Late apoptosis (representative cytogram): 59.54%
  Live cells (representative cytogram): 15.26%
  Necrotic cells (representative cytogram): 0.21%
[2]; [4]
  Early Apoptotic [E+−]: 22.71 ± 2.11 %
  Late Apoptotic [E++]: 60.16 ± 2.21%
  Living Cells [E−−]: 16.84 ± 1.93 %
  Necrotic Cells [E−+]: 0.29 ± 0.09 %
  Single Cells in Gate B: 83.19 ± 0.40 %
[2]; IC50 (Comp. 1 13, Comp. 4 430, Comp. 7 55 μmol/L), listed as Comp. 4
  Late Apoptotic [E++]: 60.16 ± 2.21 %
[2]; [5]
  Early Apoptotic [E+−]: 30.69 ± 3.01%
  Late Apoptotic [E++]: 34.69 ± 1.51%
  Living Cells [E−−]: 34.17 ± 3.88%
  Necrotic Cells [E−+]: 0.45 ± 0.15 %
  Single Cells in Gate B: 78.90 ± 0.11 %
[2]; [7]
  Early Apoptotic [E+−]: 30.69 ± 3.01 %
  Late Apoptotic [E++]: 34.69 ± 1.51 %
  Living Cells [E−−]: 34.17 ± 3.88 %
[3]; MCF-7, 1/2 × IC50, 24 h
  GSH: 148.5 ± 4.8 nmol/1 mln Cells
  GSH:GSSG Ratio: 24.0
  GSSG: 6.2 ± 0.7 nmol/1 mln Cells
[3]; MCF-7, 1/4 × IC50, 24 h
  GSH: 165.4 ± 9.6 nmol/1 mln Cells
  GSH:GSSG Ratio: 19.2
  GSSG: 8.6 ± 0.7 nmol/1 mln Cells

## CN(C)C(=N)N=C(N)NS(=O)(=O)c1ccccc1F [Compound 7]
[1]
  IC50: 5149 ± 22 µM
[2]; [4]
  Early Apoptotic [E+−]: 24.35 ± 2.19 %
  Late Apoptotic [E++]: 43.24 ± 4.09 %
  Living Cells [E−−]: 31.88 ± 4.77 %
  Necrotic Cells [E−+]: 0.54 ± 0.01 %
  Single Cells in Gate B: 79.48 ± 0.82 %
[2]; [5]
  Early Apoptotic [E+−]: 23.59 ± 1.57 %
  Late Apoptotic [E++]: 35.98 ± 4.64 %
  Living Cells [E−−]: 39.85 ± 5.67 %
  Necrotic Cells [E−+]: 0.57 ± 0.03 %
  Single Cells in Gate B: 78.97 ± 0.51 %
[3]; MCF-7, 1/2 × IC50, 24 h
  GSH: 169.0 ± 6.0 nmol/1 mln Cells
  GSH:GSSG Ratio: 15.9
  GSSG: 10.6 ± 0.4 nmol/1 mln Cells
[3]; MCF-7, 1/4 × IC50, 24 h
  GSH: 166.8 ± 12.8 nmol/1 mln Cells
  GSH:GSSG Ratio: 21.2
  GSSG: 7.9 ± 0.9 nmol/1 mln Cells
